US9950026B2, “Methods for reducing oxidative damage” (Cornell Research Foundation, Inc., priority 2004, dated 2018)
Where a SMILES comes first, the peptide text is derived from it. [ ]: non-standard residue; d: D form. Dmt = Cc1cc(O)cc(C)c1C[C@H](N)C(=O)O

How the values were obtained:
[1] = test system: G93A transgenic familial ALS mice; experiment: Motor performance by rotarod in ALS mice; type: in vivo; settings: between day 100 and 130
[2] = test system: G93A-SOD transfected murine neuroblastoma (N2A) cells; experiment: H2O2-induced cell death (LDH release); type: cell-based; settings: SS-31 between 1 and 100 μM added 1 h after exposure to H2O2
Protocol: FIG. 24. Increased hydrogen peroxide (H2O2) sensitivity of G93A-SOD transfected murine neuroblastoma (N2A) cells as compared to wildtype SOD-transfected N2A cells after addition of 0.5 or 1 mM H2O2 for 1 h. Cell death was quantified by measurement of the percentage of H2O2-induced LDH release of total cellular LDH-content. […] Values are means+S.D., n=4-5, *p<0.1, **p<0.05, Student's t-test.

[3] = test system: G93A transgenic familial ALS mice; experiment: Disease onset, survival and tolerability in ALS mice; type: in vivo; settings: 5 mg/kg SS-31 i.p.
Protocol: FIG. 25A-25B. (A) Cumulative probability of disease on set and survival with SS-31 5 mg/kg/day treatment (n=14) […] as compared to vehicle treatment (n=14). […] (B) Mean survival (days) of G93A mice treated with vehicle or SS-31 5 mg/kg/day. (Data are mean±SD, p<0.05, Student's t-test).
Treatment with 5 mg-kg SS-31 i.p. started at 30 days of age of G93A transgenic familial amyotrophic lateral sclerosis (ALS) mice (high copy number, B6SJL-Tg(SOD1-G93A)1Gur/J) led to a significant delay of disease onset as defined by the appearance of tremor and hind limb clasping as well as deterioration in the rotarod performance, the average age of onset in the control group was 88+7 days, in the SS-31 treated group 95+6 days (p<0.05, Logrank (Mantel-Cox)). […] There was a gender effect on survival which has been observed in previous studies with this model as well in G93A mice in this background with males having a shorter life span than females (average of 5 days).

SH-SY5Y cells [4] = experiment: Mitochondrial function, MTT assay, after tBHP; type: cell-based, human; settings: tBHP 50-100 μM, 24 h
Protocol: FIG. 23A-23B. SS-31 protected against tBHP-induced mitochondrial viability. (A) SS-31 protected mitochondrial viability in N2A cells treated with tBHP for 24 h. Mitochondrial viability was evaluated using the MTT assay (*P<0.01 compared to untreated cells, *P<0.05, P<0.01 compared to tBHP alone). […]
Only viable mitochondria containing NADPH dehydrogenase activity are capable of cleaving MTT to the formazan. A 50 μM tBHP induced 50% loss of mitochondrial function in N2A cells (FIG. 23A, […]) and 30% loss of mitochondrial function in SH-SY5Y cells (FIG. 23B, P<0.01). […] Treatment of N2A cells with SS-31 alone had no effect on mitochondrial function.

G93A mice = experiment: Lumbar spinal cord cell counts and immunostaining in ALS mice; type: in vivo
Text: FIG. 27. Attenuation of motor neuron loss by SS-31 in the ventral horn of the lumbar spinal cord of G93A mice. Photomicrographs show cresyl violet stained sections through the ventral horn of the lumbar spinal cord from non-transgenic control (A) and G93A mice treated with vehicle (PBS) (B) or SS-31 (C) at 110 days of age. […] Values are mean±standard error of means.
(§1) FIG. 28A-28C. 4-hydroxynonenol immunostaining. Photomicrographs of representative sections through the ventral horn of the lumbar spinal cord of wild-type control (A), and G93A mice treated with vehicle (B) or SS-31 (C) show generalized reduction of 4-hydroxynonenal staining in neurons and neurophils in drug-treated mice.
as §1, with “29A-29C. Nitrotyrosine” for “28A-28C. 4-hydroxynonenol”, “nitrotyrosine” for “4-hydroxynonenal”

SH-SY5Y cells [5] = experiment: Apoptosis by nuclear morphology (Hoechst 33342) after tBHP; type: cell-based, human
Protocol: FIG. 20A-20C. […] (A)(a-c; a′-c′) N2A cells were treated with 50 μM tBHP alone or with SS-31 for 12 h. Cells were stained with Hoechst 33342 for 20 min., fixed, and imaged by fluorescent microscopy. (a) Untreated cells show uniformly stained nuclei (a′). […] (c) Cells treated with tBHP and 1 nM SS-31 had less nuclear changes (c′). […] Apoptotic cells were counted using MetaMorph software. *P<0.01 compared to untreated cells; *P<0.01 compared to tBHP alone. […] SH-SY5Y cells were treated with 25 μM tBHP for 24 h. *P<0.01 compared to untreated cells; *P<0.01 compared to tBHP alone.
SH-SY5Y cells were grown on 96-well plates, treated with t-BHP (0.025 mM) in the absence or presence of SS-31 (10^−12M-10^−9M) at 37° C. for 24 h. All treatments were carried out in quadriplicates. Cells were then stained with […] Hoechst 33342 for 20 min, fixed with 4% paraformaldehyde, and imaged using a Zeiss fluorescent microscope (Axiovert 200M) equipped with the Zeiss Acroplan x20 objective. Nuclear morphology was evaluated using an excitation wavelength of 350±10 nm and a longpass filter of 400 nm for emission. All images were processed and analyzed using the MetaMorph software (Universal Imaging Corp., West Chester, Pa.). Uniformly stained nuclei were scored as healthy, viable neurons, while condensed or fragmented nuclei were scored as apoptotic.

## Cc1cc(O)cc(C)c1C[C@H](NC(=O)[C@H](N)CCCNC(=N)N)C(=O)N[C@@H](CCCCN)C(=O)N[C@@H](Cc1ccccc1)C(N)=O [SS-31, D-Arg-2′6′-Dmt-Lys-Phe-NH2] (H-[dR][Dmt]KF-NH2; N-terminus assumed)
[1]
  motor performance (rotarod): significantly improved
[2]
  H2O2-induced cell death: significantly reduced
[3]
  average age of onset: 95+6 days
  survival: 142+12 day
  tolerability / side effects: well tolerated and no side effects were observed
[3]; vs control
  increase in survival: 9%
SH-SY5Y cells [4]
  tBHP-induced mitochondrial toxicity (MTT): dose-dependently reduced
G93A mice; mouse, in vivo
  cell loss in the lumbar spinal cord (stereological cell counts): significantly ameliorated
G93A mice; spinal cord
  3-nitrotyrosine immunostaining (protein nitration): markedly reduced
  4-hydroxynonenenal immunostaining (lipid peroxidation): markedly reduced
SH-SY5Y cells [5]; 25 μM tBHP, 24 h
  number of apoptotic cells: dose-dependently reduced
SH-SY5Y cells [5]; 0.025 mM t-BHP, 1 nM SS-31, 24 h
  apoptosis induced by a low dose of t-BHP: prevents apoptosis
SH-SY5Y cells [5]; 24 h, t-BHP 0.05 mM
  percent of apoptotic cells: dose-dependently reduced
